Measurements as given in patent US20130005741A1, “SUBSTITUTED PYRIMIDINE AS A PROSTAGLANDIN D2 RECEPTOR ANTAGONIST” (AVENTIS PHARMACEUTICALS INC., priority 2010, published 2013).
Where a name gives a salt, the structure may show the parent alone.

Target: T1, human prostaglandin D2 receptor (DP) (Homo sapiens, UniProt Q13258)
T1 construct: endogenous in cells; host or cells: human platelets in platelet-rich plasma from donor blood
T1 sequence (Q13258 1-359): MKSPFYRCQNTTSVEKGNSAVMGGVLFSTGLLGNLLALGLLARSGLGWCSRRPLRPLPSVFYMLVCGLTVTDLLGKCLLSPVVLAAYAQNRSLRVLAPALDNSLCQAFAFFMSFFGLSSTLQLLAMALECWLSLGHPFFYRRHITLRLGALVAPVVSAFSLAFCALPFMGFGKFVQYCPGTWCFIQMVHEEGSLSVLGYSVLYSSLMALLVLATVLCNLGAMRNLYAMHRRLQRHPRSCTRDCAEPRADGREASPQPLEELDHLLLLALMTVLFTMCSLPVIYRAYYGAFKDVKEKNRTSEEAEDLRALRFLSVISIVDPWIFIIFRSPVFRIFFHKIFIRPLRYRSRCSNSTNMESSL
Test: BW245C-induced cAMP accumulation in human platelet rich plasma (hPRP) by HTRF cAMP assay
Format: cell-based
Settings: inhibition of BW245C (25 nM)-induced cAMP accumulation in human platelet-rich plasma
Excerpt: Assessment of Antagonist Activities of Compounds on BW245C-Induced cAMP
Accumulation in Human Platelet Rich Plasma (hPRP) by HTRF cAMP Assay
The purpose of the assay is to assess compound antagonist activity at the human prostaglandin D2 receptor (DP), also known as (DP1), in the presence of plasma proteins. DP is a Gs-protein coupled receptor, the activation of which induces cAMP accumulation. BW245C is a DP selective agonist. Therefore, by measuring inhibition of BW245C-induced 3′-5′-cyclic adenosine monophosphate (cAMP) accumulation in human platelet-rich plasma (hPRP), the assay enables us to identify or confirm antagonist compounds at the human DP and/or IP receptors.
The principle of the assay is based on HTRF technology (Homogeneous Time-Resolved Fluorescence). The method is a competitive immunoassay between native cAMP produced by cells and the tracer cAMP labeled with the dye d2. The tracer is visualized by a monoclonal antibody anti-cAMP labeled with cryptate. The specific signal (i.e. energy transfer) is inversely related to the concentration of cAMP in the standards or samples. The assay was carried out using the cAMP HiRange HTRF kit from Cisbio (catalog number 62AM6PEB, 888-963-4567).
Preparation of Human Platelet Rich Plasma (hPRP): Human blood was obtained from sanofi-aventis on-site blood donor panel. […]

IC50 [µM]	SMILES
0.155	COc1nc(NCCc2ccc(OC(F)(F)F)cc2)cc(N2CCC[C@H](CC(=O)O)C2)n1 (single isomer, unassigned) [(R) enantiomer]
0.073	COc1nc(NCCc2ccc(OC(F)(F)F)cc2)cc(N2CCC[C@@H](CC(=O)O)C2)n1 [drawing 23, (S)1-{2-Methoxy-6-[2-(4-trifluoromethoxy-phenyl)-ethylamino]-pyrimidin-4-yl}-piperidin-3-yl)-acetic acid, phosphoric acid salt]
